pIC50: −log10 of the molar value.

In one test the test system is THP-1 cells (cell migration caused by MCP-1). Briefly: Inhibitory activity of cell migration caused by MCP-1 (microchemotaxis chamber). The test is classed as cell-based. To be noted: Homo sapiens, THP-1, 2 h, recombinant human MCP-1 20 ng/ml, 37° C. How it is done:
Measurement of Inhibitory Activity of Cell Migration Caused by MCP-1
To evaluate the activity of the test compounds listed in the following table in inhibiting cell migration, the cell migration caused by the monocyte chemotactic protein MCP-1/MCAF was measured using human premonocyte-derived leukemia cells THP-1 (ATCCTIB203) as migrating cells and the method of FALK et al. (J. Immunol. Methods, vol. 33, pp. 239 to 247 (1980)) as follows. That is, to the upper chamber (200 μl) of a 96-well microchemotaxis chamber (made by Neuroprobe Co.) was added 2×10^6 /ml THP-1 cells (10% fetal calf serum (FCS) containing RPMI-1640 medium (made by Flow Laboratories Co.), while to the lower chamber (35 μl) was placed recombinant human MCP-1 (made by Peprotech Co.) diluted by the same solution to give a final concentration of 20 ng/ml. Between the two chambers, a polycarbonate filter (pore size 5 μm, PVP-free, made by Neuroprobe Co.) was affixed. Incubation was performed at 37° C. in the presence of 5% CO2 for 2 hours. The filter was taken out and the cells migrating to the lower surface of the filter were immobilized and stained by a DiffQuick solution (made by Kokusai Shiyaku Co.) Next, a Breedmeter (made by Molecular Device Co.) was used for measurement at a measurement wavelength of 550 nm and the mean value of three wells was found and used as an indicator of the number of migrating cells. At this time, the test compound was added to the upper chamber together with THP-1 cells in various concentrations to find the cell migration inhibitory activity. The cell migration inhibition % was found by dividing the (number of migrating cells caused by MCP-1 added to the lower chamber in the case of addition of the test compound to the upper chamber)-(number of migrating cells in the case of no test compound added to the upper chamber and no MCP-1 added to the lower chamber) by (number of migrating cells caused by MCP-1 added to the lower chamber in the case of no test compound added to the upper chamber)-(number of migrating cells in the case of no test compound added to the upper chamber and no MCP-1 added to the lower chamber).
For orientation: pIC50 means −log10 of the IC50, conventionally taken in molar units. Consider `COC(=O)CCCCCSC1=CC[C@@H](O)[C@@H]1/C=C/[C@@H](O)Cc1ccccc1`, for which the pIC50 was 6.42. Still for that read-out and setting: to `CCCCCC1=C(SCCCCCC(=O)OC)[C@@H](/C=C/[C@@H](O)C[C@H](C)CCCC)[C@H](O)C1` belongs 6.35; to `COC(=O)CCCCCSC1=C(C)C[C@@H](O)[C@@H]1CCC(O)Cc1ccccc1` (some centres unmarked), 6.92.

In the case of `COC(=O)CCCCCSC1=C(C2CC2)C[C@@H](O)[C@@H]1/C=C/C(O)Cc1ccccc1` (single isomer, unassigned), the pIC50 was 6.70. Same read-out and setting: for `CC1=C(SCCCCCC(=O)O)[C@@H](/C=C/C(O)Cc2ccccc2)[C@H](O)C1` (single isomer, unassigned) [Example 34] the value was 7.80; for `CCCC[C@@H](C)C[C@H](O)/C=C/[C@@H]1C(SCCCCCC(=O)OC)=CC[C@H]1O` [drawing 89], 7.89; for `CCCC[C@@H](C)C[C@H](O)/C=C/[C@@H]1C(SCCCCCC(=O)O)=CC[C@H]1O` [drawing 90], 6.82. Still for that read-out and setting: for `CCCC[C@@H](C)C[C@H](O)/C=C/[C@@H]1C(SCCCCCC(=O)OC)=C(C=O)C[C@H]1O` the value was 6.72; for `CCCC[C@@H](C)C[C@H](O)/C=C/[C@@H]1C(SCCCCCC(=O)OC)=C(C(C)=O)C[C@H]1O`, 6.68. On to `COC(=O)CCCCCCC1=C(C)C[C@@H](O)[C@@H]1/C=C/C(O)Cc1ccccc1` (single isomer, unassigned), for which the negative-log IC50 (pIC50) was 7.19. Same read-out and setting: for `CCCC[C@@H](C)C[C@H](O)/C=C/[C@@H]1C(SCCCCCC(=O)OC)=C(C)C[C@H]1O` [drawing 82] the value was 7.59. The same measure, in the same setting: to `COC(=O)COCCCSC1=C(C)C[C@@H](O)[C@@H]1/C=C/C(O)Cc1ccccc1` (single isomer, unassigned) belongs 6.44; to `CCCC[C@@H](C)C[C@H](O)/C=C/[C@@H]1C(SCCCCCC(=O)OC)=C(CCC(C)(C)C)C[C@H]1O`, 6.22. Same read-out and setting: for `CCCC[C@@H](C)C[C@H](O)/C=C/[C@@H]1C(SCCCCCC(=O)OC)=C(C(F)(F)F)C[C@H]1O` the value was 5.60. Turning to `COC(=O)CCCCCSC1=C(C)CCC1/C=C/[C@@H](O)Cc1ccccc1` (single isomer, unassigned), the pIC50 is 7.82. For `CCCC[C@@H](C)C[C@H](O)/C=C/[C@@H]1C(SCCCCCC(=O)OC)=C(C(=O)OC)C[C@H]1O`, the negative logarithm of the IC50 (pIC50) is 6.33. The same measure, in the same setting: to `CCCC[C@@H](C)C[C@H](O)/C=C/[C@@H]1C(SCCCCCC(=O)O)=C(C)C[C@H]1O` belongs 7.14.

The same test, now with this note: recombinant human MCP-1 20 ng/ml, 37° C., 2 hours.
As to `COC(=O)CCCCCSC1=C(C)C[C@@H](O)[C@@H]1/C=C/C(O)Cc1ccccc1` (single isomer, unassigned) [drawing 93], the negative-log IC50 (pIC50) is 8.00. On the same count and under the same terms, for `COC(=O)CCCCCSC1=C(C)C[C@@H](O)[C@@H]1/C=C/C(O)Cc1ccccc1` (single isomer, unassigned) [drawing 92] the value was 6.68.

The subject of the next test is thickening of intima of carotid artery of rat. Briefly: Thickening of intima of carotid artery of rat due to balloon catheter. To be noted: 3.2 μg/rat/hr subcutaneously, 3 days before to 11 days after surgery; measured after 14 days; control 0.935 ± 0.377. In kind it is in vivo, Male Wistar rats. How it is done:
Thickening of Intima of Carotid Artery of Rat Due to Balloon Catheter
The test was performed in the following manner in accordance with the method of Crose et al. (Lab. Invest., vol. 49, p. 206, 1983). Male Wistar rats having a body weight of 300 to 350 g were used. The neck of each rat was opened under anesthesia by sodium pentobarbitol, then a balloon catheter (Fogarty, 2F) was inserted from the right external carotid artery, until the starting portion of the common carotid artery. The balloon was expanded by physiological saline to such an extent causing a light resistance, then the catheter was pulled out in that state up to the carotid artery to give trauma to the intima. This procedure was repeated three times, then the catheter was withdrawn and the external carotid artery was sewn up. After 14 days, the chest was opened under anesthesia by diethyl ether, refluxing was performed from the aorta by a Carnoa solution (methanol:chloroform:acetic acid=6:3:1), then the right common carotid artery was excised and immobilized by neutral formalin solution. The immobilized carotid artery was dyed by Elasticavan Gieson dye, then the areas of the Media and thickened portion of the Intima were measured by an image resolution device (LUZEX2D). […]
As for `CCCC[C@@H](C)C[C@H](O)/C=C/[C@@H]1C(SCCCCCC(=O)OC)=CC[C@H]1O` [Example 28, methyl (11R,12S,13E,15S,17R)-11,15-dihydroxy-17,20-dimethyl-7-thiaprosta-8,13-dienoate], the “Intima/media (Average ± standard error)” value is reported as 0.702 ± 0.241.

The same test, now with this note: (1-T/C)×100; 3.2 μg/rat/hr subcutaneously; vs control group.
As for `CCCC[C@@H](C)C[C@H](O)/C=C/[C@@H]1C(SCCCCCC(=O)OC)=CC[C@H]1O` [Example 28, methyl (11R,12S,13E,15S,17R)-11,15-dihydroxy-17,20-dimethyl-7-thiaprosta-8,13-dienoate], the “Suppression Rate (intima thickening suppression rate)” value is given as 25%.

The subject of another test is platelets (platelet aggregation). Briefly: Inhibitory activity of platelet aggregation in rats. In kind it is cell-based, Wistar rats (male). The following applies: rat platelet rich plasma; 100 μM adenosine 2-phosphoric acid (5 μl) induced; 37° C.; read-out: Activity Suppressing Platelet Aggregation (Rats) IC50. How it is done: Measurement of Inhibitory Activity of Platelet Aggregation in Rats
Wistar rats (male, approximately 400 g) were made to fast for 1 day, then the entire blood was taken from the abdominal artery under anesthesia by ether. To this was added a 3.8% aqueous solution of sodium citrate in a 1/10 amount followed by immediate mixture. This was centrifuged at 1000 rpm for 10 minutes. The top layer was used as the platelet rich plasma. The bottom layer was centrifuged at 3000 rpm for 10 minutes and the top layer was used as the platelet poor plasma. The platelet rich plasma was diluted by the platelet poor plasma to give a platelet count of […]. This was used for the measurement. Note that the platelets were measured using an automatic blood cell counter MEK-4500 (Nihon Koden). The platelet aggregation was measured by measuring the turbidity using an NBS HEMATRACER 801 (M. C. Medical). 90 μl of the platelets were placed in cuvettes, then 5 μl of the different test compounds were added to give the target final concentration, then these were heated for 1 minute at 37° C., then 5 μl of an aqueous solution of 100 μM adenosine 2-phosphoric acid (M. C. Medical) was added to cause platelet aggregation. The activity inhibiting aggregation was found from the following formula: […]
Aggregation inhibiting rate (%)
={1-(maximum change in turbidity at time of addition of test compound)
.div.(maximum change in turbidity at time of no addition of test compound)}
For `CCCC[C@@H](C)C[C@H](O)/C=C/[C@@H]1C(SCCCCCC(=O)O)=CC[C@H]1O` [drawing 105], the negative logarithm of the IC50 (pIC50) was 5.66. As to `CCCC[C@@H](C)C[C@H](O)/C=C/[C@@H]1C(SCCCCCC(=O)OC)=CC[C@H]1O` [drawing 104], the pIC50 was 6.12. Regarding `CCCC[C@@H](C)C[C@H](O)/C=C/[C@@H]1C(SCCCCCC(=O)OC)=C(C)C[C@H]1O` [drawing 103], the pIC50 is 5.35.

The subject of the next test is vascular smooth muscle cells (cell migration caused by PDGF). Briefly: Inhibitory activity of cell migration caused by PDGF (Transwell chamber). In kind it is cell-based. To be noted: human PDGF 10 ng/ml, 37° C., 6 hours. As for the experimental part: Measurement of Inhibitory Activity of Cell Migration Caused by PDGF
To evaluate the activity of the test compounds listed in the following table to inhibit cell migration caused by PDGF, the migrating cells caused by human platelet derived growth factor (PDGF) were measured in the following way using the vascular smooth muscle cells derived from normal human arteries (made by Kurabo) and according to the method of MaCarthy et al. (J. Cell. Biol. 97, 772-777 (1983)). That is, a Transwell Chamber (Costar Co., registered trademark) was used to measure the inhibitory action. The chamber was divided into two layers, upper and lower, by a 8 μm pore size membrane filter (PVP-free polycarbonate filter, Nucleopore Co., registered trademark). […] The cells on the upper surface of the filter were removed by wiping with a cotton swab and the cells that had migrated to the lower surface of the filter were counted under a high output microscope (×200). Usually, five fields were counted per filter. […]
In the case of `CC1=C(SCCCCCC(=O)O)[C@@H](/C=C/C(O)Cc2ccccc2)[C@H](O)C1` (single isomer, unassigned) [Example 34], the negative logarithm of the IC50 (pIC50) was 7.14.

With `COC(=O)CCCCCSC1=C(C)C[C@@H](O)[C@@H]1/C=C/C(O)Cc1ccccc1` (single isomer, unassigned) [drawing 100], the pIC50 was 7.09.
